The values below come from ChEMBL document CHEMBL1135798, “Structure-activity relationships of the antimalarial agent artemisinin. 6. The development of predictive in vitro potency models using CoMFA and HQSAR methodologies” (2002).

This test deals with Plasmodium falciparum. In words: Antimalarial activity against chloroquine-resistant, mefloquine-sensitive Plasmodium falciparum W2. Type of test: functional.
As for `C[C@@H]1CCC2[C@@H](C)C(=O)OC3OC(C)(C)OO[C@@]32[C@H]1C` (stereo partly drawn), the “Log RA” value is -0.86.
With `C[C@@H]1CC[C@H]2CCO[C@@H]3O[C@@]4(CCCCc5ccccc5)CC[C@@H]1[C@@]23OO4`, the “Log RA” value came out at 0.58.
On to `CCOC(=O)C[C@H](O[C@H]1O[C@@H]2O[C@@]3(C)CC[C@H]4[C@H](C)CC[C@@H]([C@H]1C)[C@@]24OO3)c1ccc([N+](=O)[O-])cc1`, for which the “Log RA” value is given as 1.57.
In the case of `C/C=C\C[C@@H]1C(=O)O[C@@H]2O[C@@]3(C)CC[C@H]4[C@H](C)CC[C@@H]1[C@@]24OO3`, the “Log RA” value was -1.1.
To `CC(=O)Oc1ccc([C@@H](C)O[C@H]2O[C@@H]3O[C@@]4(C)CC[C@H]5[C@H](C)CC[C@@H]([C@H]2C)[C@@]35OO4)cc1` belongs 0.68; to `CCC(=O)OCC(CC)(CC)OOC(C)(C)C`, -4.
To `CCOC(=O)C[C@H](O[C@H]1O[C@@H]2O[C@@]3(C)CC[C@H]4[C@H](C)CC[C@@H]([C@H]1C)[C@@]24OO3)c1ccccc1` belongs 0.9.
Regarding `CC(C)C[C@@]12CC[C@H]3[C@H](C)CC[C@H]4CCO[C@H](O1)[C@]43O2`, the “Log RA” value is listed as -4.
In the case of `C[C@@H]1CC[C@@H]2[C@]34OO[C@](C)(CC[C@@H]13)O[C@H]4OC(=O)[C@@]21CO1`, the “Log RA” value was -2.09.
For `CCCC[C@H]1CO[C@@H]2O[C@@]3(C)CC[C@H]4[C@H](C)CC[C@@H]1[C@@]24O3`, the “Log RA” value was -4.
`CO[C@H]1O[C@@]2(C)CC[C@H]3CCC[C@@H](CCOCc4ccncc4)[C@]31OO2`: the “Log RA” value is recorded as 0.14.
`C[C@@H]1CC[C@@H]2[C@]34OO[C@](C)(CC[C@@H]13)O[C@H]4OC(Nc1ccccc1)[C@@]2(C)Br` (stereo partly drawn): the “Log RA” value stood at 0.18.
To `C[C@@H]1CC[C@H]2[C@@H](C)CO[C@@H]3O[C@@]4(C)CC[C@@H]1[C@]32OO4` belongs 0.75.
